Assay results taken from patent US20210179680A1, “POLYPEPTIDE, DERIVATIVES THEREOF, AND APPLICATION THEREOF IN PREPARATION OF DRUGS HAVING RESISTANCE TO PULMONARY FIBROSIS” (priority 2016, published 2021).
Bridge positions count the residues as written; N and C are the ends. Square brackets hold non-standard residues; d marks the D form. Peptide text beside a SMILES is read from it. S5 = C=CCCC[C@](C)(N)C(=O)O

Columns and labels:
Type in all cases: in vivo, C57BL/6 mice
[1] = test system: mice with bleomycin-induced pulmonary fibrosis; assay: Lung weight index in mice with pulmonary fibrosis; details: Table 3 groups, 2 mg/kg i.p.; after 28 days; lung weight (mg) divided by body weight (g)
Description: (§1) Male C57BL/6 mice were fasted overnight, then anesthetized with 45 mg/kg sodium pentobarbital by injection intraperitoneally (i.p.), and intratracheally injected with bleomycin at a dose of 3 U/kg. The specific operation steps are as follows: cut the neck skin of the mouse with as little trauma as possible, expose the trachea with the assistance of elbow ophthalmic forceps, puncture the trachea and inject about 50 μL of bleomycin into the trachea with a microsyringe, rotate the mouse quickly and stand it upright for 5 minutes in order to make bleomycin evenly enter the left and right lobe, thereby constructing an animal model. The whole operation was performed at a surgical table at about […]. Mice in the sham operation group were intratracheally injected with an equal amount of physiological saline for injection.
Pulmonary fibrosis model was prepared according to the method described in Example 2, and administered in groups according to Table 3. After 28 days, the lungs of the mice were finely stripped and weighed, and a lung weight index was obtained from dividing the lung weight (mg) by the body weight (g) of the mice. […] In FIG. 7, “##” represents that P value is less than 0.01 when the lung weight index of administration group was compared with that of the sham operation group; “*” represents that P value is less than 0.05 when the lung weight index of administration group was compared with that of the bleomycin group; “**” represents that P value is less than 0.01 when the lung weight index of administration group was compared with that of bleomycin group.
Pulmonary fibrosis models were made according to the method described in Example 2 and administered in groups according to Table 9. After 28 days, the lungs of the mice were finely stripped and weighed, and the lung weight (mg) was divided by the body weight (g) of the mice to obtain a lung weight index. […] In FIG. 13, “##” represents that P value is less than 0.01 when the lung weight index of the administration groups were compared with that of the sham operation group; “*” represents that P value is less than 0.05 and “**” represents that P value is less than 0.01 when the lung weight index of the administration groups were compared with bleomycin group.

[2] = test system: mice with bleomycin-induced pulmonary fibrosis; assay: HE staining pathomorphology and inflammatory score of bleomycin-induced pulmonary fibrosis; details: Table 3 groups, 2 mg/kg i.p., after 28 days, grade 0-5
Description: as §1
General tissue changes and tissue products can be visualized by HE staining method, namely Hematoxylin and Eosin staining method, which is the most commonly used staining method for morphology. Among them, hematoxylin dyeing solution is an alkaline dyeing solution, which mainly makes the chromatin in the nucleus and the ribosome in the cytoplasm purple blue; eosin is an acid dye, which mainly makes the components in the cytoplasm and extracellular matrix red. Pulmonary fibrosis models were made according to the method described in Example 2 and administered in groups according to Table 3. After 28 days, the right lower lobe of lung tissue of the experimental animals was taken, and fixed with 4% (v/v) paraformaldehyde and embedded in paraffin. Section was performed on the largest cross-section of the paraffin block in which the lung tissue embedded, and basic pathological changes was observed through HE staining. […] The administration of polypeptides S1-S11 can reduce lung inflammation caused by bleomycin, and effectively ameliorate lung injury and restore normal lung structure.
The inflammatory grading was observed according to the results of HE staining, and the criteria were as follows (grade 0-5): grade “0”: normal tissue; grade “1”: extremely small inflammatory changes; grade “2”: mild to moderate inflammatory changes without apparent destruction of lung tissue structure; grade “3”: moderate inflammatory injury (thickening of alveolar diaphragm); grade “4”: moderate to severe inflammatory injury with formation of tissue mass, or the normal structure of lung tissue was destroyed by localized pneumonia area; grade “5”: severe inflammatory injury, severe destruction of the localized lung tissue structure, resulting in closure of lumen.
Pulmonary fibrosis models were made according to the method described in Example 2 and administered in groups according to Table 9. After 28 days, the right lower lobe of lung tissue of the experimental animals was taken, and fixed by 4% (v/v) paraformaldehyde and embedded in paraffin. Section was performed on the largest cross-section of the paraffin block in which the lung tissue embedded, and basic pathological changes was observed through HE staining.

[3] = test system: mice with bleomycin-induced pulmonary fibrosis; assay: Pulmonary function (Flexivent) in mice with pulmonary fibrosis; details: Table 3 groups, 2 mg/kg i.p.; for Dynamic compliance (mL/cmH2O) / Dynamic elasticity (cmH2O./mL) / Dynamic resistance (cmH2O · s/Ml) / Inspiratory capacity: 28th day after model construction; for pulmonary function of mice with pulmonary fibrosis (in words): FIG. 11
Description: as §1
(§2) Pulmonary function is a gold indicator for clinical detection of pulmonary fibrosis in patients. The decline of lung function is generally accompanied by an aggravation of fibrosis, while the improvement of lung function generally represents the recovery of lung tissue structure. Pulmonary fibrosis models were prepared according to the method described in Example 2 and administered in groups according to Table 3. On the 28th day after the construction of the animal model, the mice were anesthetized with sodium pentobarbital (45 mg/kg, i.p.). Lung function was tested by the Flexivent Small-animal respiratory mechanics and the testing methods were TLC and SnapShots (Testing method refers to Lv X, Wang X, Li K, et al. Rupatadine Protects against Pulmonary Fibrosis by Attenuating PAF-Mediated Senescence in Rodents [J]. PloS one, 2013, 8(7): e68631).
as §2, with “lung function also generally represents” for “lung function generally represents”, “to Table 9. 28 days later, the mice” for “to Table 3. On the 28th day after the construction of the animal model, the mice”, “Senescence in Rodents[J]. PloS one,” for “Senescence in Rodents [J]. PloS one,”

Compound | Lung weight index [1] | Inflammatory score [2] | Dynamic compliance (mL/cmH2O) [3] [mL/cmH2O] | Dynamic elasticity (cmH2O./mL) [3] [cmH2O./mL] | Dynamic resistance (cmH2O · s/Ml) [3] [cmH2O · s/Ml] | Inspiratory capacity [3] [mL] | pulmonary function of mice with pulmonary fibrosis (in words) [3]
CSCC[C@H](NC(=O)[C@H](CC(C)C)NC(=O)[C@@H](N)Cc1c[nH]cn1)C(=O)N[C@@H](C)C(=O)N[C@@H](CS)C(=O)N[C@@H](Cc1ccccc1)C(=O)N[C@H](C(=O)N[C@@H](CS)C(=O)N[C@@H](C)C(=O)N[C@@H](CCCCN)C(=O)N[C@@H](CCCCN)C(=O)N[C@@H](CC(C)C)C(=O)N[C@@H](CCCCN)C(=O)N[C@@H](CCCCN)C(=O)N[C@@H](CCCNC(=N)N)C(=O)O)[C@@H](C)O [MR2] (H-HLMACFTCAKKLKKR-OH; N-terminus and C-terminus assumed) | 11.4625 | 4 | 0.22 | 68.83 | 1.775 | 0.456 | improved
CSCC[C@@H]1NC(=O)[C@H](CC(C)C)NC(=O)[C@@](C)(N)CCCC=CCCC[C@@](C)(C(=O)N[C@@H](Cc2ccccc2)C(=O)N[C@H](C(=O)N[C@@H](CS)C(=O)N[C@@H](C)C(=O)N[C@@H](CCCCN)C(=O)N[C@@H](CCCCN)C(=O)N[C@@H](CC(C)C)C(=O)N[C@@H](CCCCN)C(=O)N[C@@H](CCCCN)C(=O)N[C@@H](CCCNC(=N)N)C(=O)O)[C@@H](C)O)NC(=O)[C@H](C)NC1=O [S1, S5-Leu-Met-Ala-S5-Phe-Thr-Cys-Ala-Lys-Lys-Leu-Lys-Lys-Arg] (H-[S5]LMA[S5]FTCAKKLKKR-OH; staple 1-5; N-terminus and C-terminus assumed) | 8.675 | 2.667 | 0.2883 | 52.17 | 1.15 | 0.71 | improved
CSCC[C@@H]1NC(=O)[C@@](C)(NC(=O)[C@@H](N)Cc2c[nH]cn2)CCCC=CCCC[C@@](C)(C(=O)N[C@H](C(=O)N[C@@H](CS)C(=O)N[C@@H](C)C(=O)N[C@@H](CCCCN)C(=O)N[C@@H](CCCCN)C(=O)N[C@@H](CC(C)C)C(=O)N[C@@H](CCCCN)C(=O)N[C@@H](CCCCN)C(=O)N[C@@H](CCCNC(=N)N)C(=O)O)[C@@H](C)O)NC(=O)[C@H](CS)NC(=O)[C@H](C)NC1=O [S2, His-S5-Met-Ala-Cys-S5-Thr-Cys-Ala-Lys-Lys-Leu-Lys-Lys-Arg] (H-H[S5]MAC[S5]TCAKKLKKR-OH; staple 2-6; N-terminus and C-terminus assumed) | 9.35 | 2.667 | 0.2683 | 55.33 | 1.25 | 0.688 | improved
CC(C)C[C@H](NC(=O)[C@H](CCCCN)NC(=O)[C@H](CCCCN)NC(=O)[C@H](C)NC(=O)[C@H](CS)NC(=O)[C@]1(C)CCCC=CCCC[C@](C)(NC(=O)[C@H](CC(C)C)NC(=O)[C@@H](N)Cc2c[nH]cn2)C(=O)N[C@@H](C)C(=O)N[C@@H](CS)C(=O)N[C@@H](Cc2ccccc2)C(=O)N1)C(=O)N[C@@H](CCCCN)C(=O)N[C@@H](CCCCN)C(=O)N[C@@H](CCCNC(=N)N)C(=O)O [S3, His-Leu-S5-Ala-Cys-Phe-S5-Cys-Ala-Lys-Lys-Leu-Lys-Lys-Arg] (H-HL[S5]ACF[S5]CAKKLKKR-OH; staple 3-7; N-terminus and C-terminus assumed) | 8.8 | 2.5 | 0.255 | 47 | 1.143 | 0.646 | improved
CSCC[C@H](NC(=O)[C@H](CC(C)C)NC(=O)[C@@H](N)Cc1c[nH]cn1)C(=O)N[C@@]1(C)CCCC=CCCC[C@@](C)(C(=O)N[C@@H](C)C(=O)N[C@@H](CCCCN)C(=O)N[C@@H](CCCCN)C(=O)N[C@@H](CC(C)C)C(=O)N[C@@H](CCCCN)C(=O)N[C@@H](CCCCN)C(=O)N[C@@H](CCCNC(=N)N)C(=O)O)NC(=O)[C@H]([C@@H](C)O)NC(=O)[C@H](Cc2ccccc2)NC(=O)[C@H](CS)NC1=O [S4, His-Leu-Met-S5-Cys-Phe-Thr-S5-Ala-Lys-Lys-Leu-Lys-Lys-Arg] (H-HLM[S5]CFT[S5]AKKLKKR-OH; staple 4-8; N-terminus and C-terminus assumed) | 8.925 | 2.833 | 0.2617 | 59.33 | 1.267 | 0.564 | improved
CSCC[C@H](NC(=O)[C@H](CC(C)C)NC(=O)[C@@H](N)Cc1c[nH]cn1)C(=O)N[C@@H](C)C(=O)N[C@@]1(C)CCCC=CCCC[C@@](C)(C(=O)N[C@@H](CCCCN)C(=O)N[C@@H](CCCCN)C(=O)N[C@@H](CC(C)C)C(=O)N[C@@H](CCCCN)C(=O)N[C@@H](CCCCN)C(=O)N[C@@H](CCCNC(=N)N)C(=O)O)NC(=O)[C@H](CS)NC(=O)[C@H]([C@@H](C)O)NC(=O)[C@H](Cc2ccccc2)NC1=O [S5, His-Leu-Met-Ala-S5-Phe-Thr-Cys-S5-Lys-Lys-Leu-Lys-Lys-Arg] (H-HLMA[S5]FTC[S5]KKLKKR-OH; staple 5-9; N-terminus and C-terminus assumed) | 8.575 | 2.333 | 0.3117 | 47.5 | 0.85 | 0.738 | improved
